ChEMBL document CHEMBL1149440, “Indol-1-yl acetic acids as peroxisome proliferator-activated receptor agonists: design, synthesis, structural biology, and molecular docking studies” (J Med Chem, 2006)

Experiments:
[1] = molecular target: T1, Peroxisome proliferator-activated receptor delta (Homo sapiens, UniProt Q03181); format: functional, cell-based, Huh-7
T1 sequence (Q03181 whole entry): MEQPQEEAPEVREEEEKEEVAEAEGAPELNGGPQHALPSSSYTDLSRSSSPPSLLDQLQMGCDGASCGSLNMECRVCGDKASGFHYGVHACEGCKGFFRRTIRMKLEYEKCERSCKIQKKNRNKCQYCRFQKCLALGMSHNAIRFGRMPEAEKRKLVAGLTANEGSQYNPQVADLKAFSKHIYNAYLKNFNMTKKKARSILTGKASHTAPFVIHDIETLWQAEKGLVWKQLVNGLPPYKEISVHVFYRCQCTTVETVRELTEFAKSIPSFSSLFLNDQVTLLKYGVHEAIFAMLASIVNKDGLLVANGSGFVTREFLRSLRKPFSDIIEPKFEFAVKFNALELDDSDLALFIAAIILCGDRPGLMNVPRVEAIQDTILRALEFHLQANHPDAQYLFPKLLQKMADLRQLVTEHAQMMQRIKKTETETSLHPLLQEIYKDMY

[2] = molecular target: T2, Peroxisome proliferator-activated receptor alpha (Homo sapiens, UniProt Q07869)
T2 sequence (Q07869 whole entry): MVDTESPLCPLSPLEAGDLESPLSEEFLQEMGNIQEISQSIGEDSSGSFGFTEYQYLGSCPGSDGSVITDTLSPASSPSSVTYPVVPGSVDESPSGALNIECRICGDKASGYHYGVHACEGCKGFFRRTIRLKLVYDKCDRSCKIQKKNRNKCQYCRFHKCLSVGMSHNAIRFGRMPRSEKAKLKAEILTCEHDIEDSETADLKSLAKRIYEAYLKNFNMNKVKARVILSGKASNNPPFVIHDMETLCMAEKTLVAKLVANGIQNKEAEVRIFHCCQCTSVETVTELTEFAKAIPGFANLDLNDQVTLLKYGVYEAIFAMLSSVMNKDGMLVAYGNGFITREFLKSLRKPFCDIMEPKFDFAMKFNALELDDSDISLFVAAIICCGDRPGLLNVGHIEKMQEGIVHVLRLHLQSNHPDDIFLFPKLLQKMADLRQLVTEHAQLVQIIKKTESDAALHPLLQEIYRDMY

[3] = molecular target: T1, Peroxisome proliferator-activated receptor delta
[4] = molecular target: T2, Peroxisome proliferator-activated receptor alpha; format: functional, cell-based, Huh-7

| Compound | EC50 [1] | IC50 [2] | IC50 [3] | EC50 [4] |
| --- | --- | --- | --- | --- |
| O=C(O)Cn1ccc2c(OCCCOc3ccc(C(=O)c4ccc(F)cc4)cc3)cccc21 | > 10000 nM | 1020 nM | > 10000 nM | > 10000 nM |
| O=C(O)Cn1ccc2c(OCCCOc3ccc4cc(C(=O)c5ccccc5)ccc4c3)cccc21 | > 10000 nM | 1080 nM | > 10000 nM | > 10000 nM |
| CCCc1cc(C(=O)c2ccc(F)cc2)ccc1OCCCOc1ccc2c(ccn2CC(=O)O)c1 |  | 470 nM |  | 50 nM |
| O=C(O)Cn1ccc2cc(OCCCOc3ccc4cc(C(=O)c5ccccc5)ccc4c3)ccc21 | 5600 nM | 484 nM | 4430 nM | 270 nM |
| O=C(O)Cn1ccc2ccc(OCCCOc3ccc4cc(C(=O)c5ccccc5)ccc4c3)cc21 | > 10000 nM | 4490 nM | 2570 nM | > 10000 nM |
| CCCc1cc(C(=O)c2ccc(F)cc2)ccc1OCCCOc1ccc2ccn(CC(=O)O)c2c1 | 5290 nM | 1050 nM | 7620 nM | > 10000 nM |
| CCCc1c(OCCCOc2cccc3c2ccn3CC(=O)O)ccc2cc(C(=O)c3ccccc3)ccc12 | > 10000 nM | 578 nM | 5380 nM | 19 nM |
| CCCc1c(OCCCOc2ccc3c(ccn3CC(=O)O)c2)ccc2cc(C(=O)c3ccccc3)ccc12 |  | 113 nM |  | 8 nM |
| CCCc1cc(C(=O)c2ccc(F)cc2)ccc1OCCCOc1cccc2c1ccn2CC(=O)O | 4000 nM | 414 nM | 3260 nM | 773 nM |
| CCCc1c(OCCCOc2ccc3ccn(CC(=O)O)c3c2)ccc2cc(C(=O)c3ccccc3)ccc12 | 4900 nM | 4490 nM | 2400 nM | 2480 nM |
| O=C(O)Cn1ccc2cc(OCCCOc3ccc(C(=O)c4ccc(F)cc4)cc3)ccc21 | > 10000 nM | > 10000 nM | > 10000 nM | > 10000 nM |
| CCCc1c(OCCCOc2ccc3c(ccn3CC(=O)O)c2)ccc2c(C(F)(F)F)noc12 |  | 496 nM |  |  |
| O=C(O)Cn1ccc2ccc(OCCCOc3ccc(C(=O)c4ccc(F)cc4)cc3)cc21 | 4350 nM | 116 nM | 3150 nM | 765 nM |
